TGI data for 19 compounds are collected here from PubChem BioAssay (NCI).

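Briefly, cells in 96-well plates were exposed to five compound concentrations for 48 h, and endpoints were estimated by linear interpolation. The concentration for full growth arrest is given as TGI.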 Where only a bound is given, the exact number is not on record here.

Common to all, as to assay: inhibition of tumour cell growth, NCI panel, 48 h
In assay [1] the test system is T-47D breast.
The test system of assay [2] is MDA-MB-231 breast.
For assay [3], the system named is MCF7 breast.
The test system of assay [4] is HL-60(TB) leukemia.
For assay [5], the system named is RPMI-8226 leukemia.
Assay [6] has as its system TK-10 renal.
Assay [7] has as its system OVCAR-3 ovarian.
In assay [8] the test system is COLO 205 colon.
Assay [9] has as its system SW-620 colon.
For assay [10], the system named is NCI-H522 lung.
Assay [11] concerns SK-MEL-5 melanoma.
For assay [12], the system named is SK-OV-3 ovarian.
Assay [13] relates to ACHN renal.
Assay [14] has as its system K-562 leukemia.
Assay [15] concerns SNB-75 CNS.

With `Cc1[nH]n(C2=NCCN2)c(=O)c1Cc1ccccc1`, the TGI in [1], in assay [2], in assay [3], in assay [4], in assay [5] and in assay [6] was above 100 µM each time. The TGI in assay [7], in assay [8], in assay [9], in [10], in [11] and in [12] was above 100 µM in each case. In addition, the TGI in assay [13] and in [14] was above 100 µM in each case.
Consider `Cc1nn(C(=O)Cc2ccccc2)c2c1C(c1ccc(N(C)C)cc1)SC(N)=N2` (stereo not given), for which the TGI in assay [1], in assay [2], in [3], in assay [4], in assay [5] and in [6] was above 100 µM in each case. In addition, the TGI in assay [15] is 32.9 µM; in assay [8], above 100 µM; in assay [9], above 100 µM; in [10], above 100 µM; in assay [11], above 100 µM; in [12], above 100 µM. The TGI in [13] is above 100 µM.
`COc1cc(/C=C2\N=C(c3ccccc3)N(c3nc4c(OC)ccc(OC)c4s3)C2=O)ccc1O`: the TGI was 26.4 µM in assay [1]; above 100 µM in assay [2]; 33.2 µM in assay [3]; above 100 µM in assay [4]; 62.8 µM in assay [5]; above 100 µM in assay [6]. The TGI in assay [7] is above 100 µM; in [15] it was 93.2 µM; in [8] it was above 100 µM; in [9], above 100 µM; in assay [10] it was above 100 µM; in assay [11], above 100 µM. Further, the values for the TGI in [12], in assay [13] and in [14] were above 100 µM, above 100 µM and 42.4 µM, respectively.
Consider `Cc1ccc(NC(=S)N/N=C(/c2ccccc2)c2ccccn2)cc1`, for which the TGI in assay [1] is 12.6 µM; in assay [2], 20.1 µM; in [3] it was 15.7 µM; in [4], 2.26 µM; in [5], above 58.4 µM; in [6], 2.44 µM. Further, the TGI came out at 12.5 µM in assay [7]; 5.16 µM in assay [15]; 2.89 µM in [8]; 20.9 µM in assay [9]; 24.4 µM in assay [10]; 5.08 µM in assay [11]. Also, the results for the TGI in assay [12], in [13] and in assay [14] were 9.29 µM, 10.3 µM and 4.61 µM, respectively.
Regarding `Cc1ccc(C)c(COCCOCn2ccc(N)nc2=O)c1`, the TGI in assay [1], in assay [2], in assay [3], in assay [4], in [6] and in assay [7] was above 100 µM each time. In addition, the TGI in [15], in [8], in assay [9], in assay [10], in assay [12] and in [13] was above 100 µM throughout. The TGI in assay [14] was above 100 µM.
In the case of `CC(C)(C)c1ccc(-c2nc3ccc(Cl)cc3c(=O)o2)cc1`, the TGI is above 100 µM in [1]; 18.6 µM in assay [2]; 61.7 µM in assay [3]; 42.4 µM in assay [4]; 54.1 µM in [5]; above 100 µM in assay [6]. Moreover, the TGI in assay [7] was 34.6 µM; in assay [15], 81.6 µM; in assay [8], 39.9 µM; in assay [9], above 100 µM; in assay [10], 29.7 µM; in assay [11], 26.2 µM. For the same compound, the TGI in [12] came to 68.7 µM; in assay [13], 61.7 µM; in assay [14], 67.8 µM.
For the compound `NC(CCC(=O)O)C(=O)N1CCN(c2nc(N3CCCC3)c3nc(Cl)c(NCc4ccccc4)nc3n2)CC1` (stereo not given), the TGI was 21.3 µM in assay [1]; 31.2 µM in assay [2]; 25.6 µM in assay [3]; 24.4 µM in assay [4]; 34.3 µM in [5]; 31 µM in assay [6]. In addition, the TGI in assay [7] is 22.9 µM; in [15], 25.3 µM; in assay [8], 23.9 µM; in [9] it was 51.3 µM; in assay [10], 34.5 µM; in [11], 20.9 µM. For the same compound, the TGI in [12] stood at 32.9 µM; in assay [13] it was 28.8 µM; in assay [14], 35.7 µM.
Turning to `COc1ccc(CCN2CCN(CCc3ccc(OC)cc3)CC2)cc1`, the TGI in [1], in assay [2], in [3], in assay [4], in assay [5] and in [6] was above 100 µM each time. Besides, the TGI in [7], in assay [8], in assay [9], in [10], in [11] and in assay [12] was above 100 µM each time. Further, the TGI in [13] and in assay [14] was above 100 µM throughout.
On to `O=[N+]([O-])c1cccc2nc3ccccc3c(NCCC[N+]3([O-])CCOCC3)c12`, for which the TGI came out at 0.919 µM in assay [1]; 0.948 µM in assay [2]; 0.725 µM in assay [3]; 1.02 µM in assay [4]; 4.69 µM in [5]; 3.33 µM in assay [6]. For the same compound, the TGI was 0.474 µM in assay [7]; 0.683 µM in [15]; 0.24 µM in [8]; 1.6 µM in [9]; 0.462 µM in assay [10]; 0.241 µM in assay [11]. Besides, the figures for the TGI in assay [12], in assay [13] and in [14] were 1.53 µM, 3.81 µM and above 100 µM, respectively.
On to `CCCCCCCCCCN(CCCCCCCCCC)C(=O)COc1c2cc(C(C)(C)C)cc1Cc1cc(C(C)(C)C)cc(c1OCC(=O)N(CCCCCCCCCC)CCCCCCCCCC)Cc1cc(C(C)(C)C)cc(c1OCC(=O)N(CCCCCCCCCC)CCCCCCCCCC)Cc1cc(C(C)(C)C)cc(c1OCC(=O)N(CCCCCCCCCC)CCCCCCCCCC)C2`, for which the TGI in [1] was 32.3 µM; in [2] it was 33.2 µM; in assay [3], 6.95 µM; in [4], 30.9 µM; in assay [6], 33.5 µM; in assay [7], 29.1 µM. The TGI in [15] is 32.5 µM; in assay [8], 29.2 µM; in assay [9], 14.2 µM; in [10], 10.2 µM; in assay [11], 26.4 µM; in assay [12], 27.6 µM. Further, the TGI stood at 28.1 µM in assay [13] and 4.87 µM in assay [14].
On to `Cc1cc(=O)n2nc(CN3CCCCC3)sc2n1`, for which the TGI in assay [1], in assay [2], in assay [3], in [4], in assay [5] and in assay [6] was above 100 µM throughout. The TGI in assay [7], in assay [15], in assay [8], in assay [9], in assay [10] and in [11] was above 100 µM in each case. For the same compound, the TGI in [12], in assay [13] and in assay [14] was above 100 µM throughout.
For `C/C=C(/C)C(=O)O[C@H]1C[C@@H]2[C@@H](O)c3occ(C)c3C[C@]2(C)[C@@H](C)C1`, the TGI in assay [1] was 30 µM; in assay [2], 29.2 µM; in assay [3] it was 38.9 µM; in [4], 28.9 µM; in assay [5] it was 76.5 µM; in [6] it was 33.8 µM. Further, the TGI in [7] stood at 31.1 µM; in assay [8], 30.2 µM; in [9], 32.6 µM; in assay [10], 30.6 µM; in assay [11], 22.6 µM; in assay [12] it was 30.9 µM. Further, the figures for the TGI in assay [13] and in assay [14] were 31 µM and 28.5 µM, respectively.
On to `COc1cc(OC)c2c(=O)c(OC)c(-c3ccc4c(c3)OCO4)oc2c1`, for which the TGI in [1], in assay [2], in [3], in assay [4], in assay [6] and in assay [7] was above 100 µM each time. In addition, the TGI in assay [15] was 33.5 µM; in [8] it was above 100 µM; in [9], above 100 µM; in [10], 92.3 µM; in [11], above 100 µM; in [12], 71.7 µM. Besides, the TGI in assay [13] and in [14] was above 100 µM throughout.
For `O=C1C(Cl)C(c2cccc(Cl)c2)N1c1ccc(-n2c(=S)[nH]c3ccccc3c2=O)cc1` (stereo not given), the TGI is above 100 µM in [1]; 74.3 µM in assay [2]; 37.8 µM in assay [3]; 52.1 µM in assay [4]; 55.6 µM in [5]; 80.1 µM in assay [6]. Further, the TGI in [7] was above 100 µM; in [8], 77.9 µM; in assay [9] it was above 100 µM; in assay [10], 31.3 µM; in assay [11], 31.4 µM; in [12], 72.5 µM. Besides, the TGI was 48.8 µM in assay [13] and 45.3 µM in assay [14].
Turning to `COc1ccccc1N1CCN(CCCN2/C(=C(\O)c3ccccc3)C(=O)c3c(C)cc(C)nc3S2(=O)=O)CC1`, the TGI in assay [1], in [2], in assay [3], in assay [4], in assay [6] and in assay [7] was above 100 µM throughout. The TGI was 30.8 µM in [15]; above 100 µM in [8]; above 100 µM in assay [9]; above 100 µM in assay [10]; above 100 µM in [11]; above 100 µM in [12]. Besides, the TGI in assay [13] and in assay [14] was above 100 µM each time.
Regarding `O=C(O)[C@@H]1CSCN1C(=O)[C@@H]1CCC(=S)N1`, the TGI in assay [1], in assay [2], in assay [3], in assay [4], in [5] and in assay [6] was above 100 µM in each case. The TGI in assay [7], in assay [15], in assay [9], in assay [10], in assay [11] and in assay [12] was above 100 µM each time. The TGI in assay [13] and in [14] was above 100 µM throughout.
Consider `O=C(O)Cc1cccc2c1OC(c1ccccc1)C(Cl)(C(=O)c1ccccc1)C2=O` (stereo not given), for which the TGI in [1] amounted to 40.2 µM; in [2] it was 58.8 µM; in assay [3] it was 24.5 µM; in assay [4] it was 28 µM; in [5], 47.4 µM; in assay [6] it was 37.2 µM. Further, the TGI in [7] was 31.9 µM; in assay [15], 40.9 µM; in assay [9], 21.2 µM; in assay [10] it was 29.6 µM; in [11], 28.6 µM; in [12] it was above 100 µM. For the same compound, the TGI stood at 26.9 µM in assay [13] and 22.6 µM in assay [14].
As for `COc1ccc(N2C(=O)C3ON(C(C(N)=O)c4ccccc4)C(c4cc5ccccc5c5ccccc45)C3C2=O)cc1` (stereo not given), the TGI in assay [1], in assay [2], in assay [3], in assay [4], in assay [6] and in assay [7] was above 50 µM in each case. Further, the TGI in assay [15], in assay [8], in assay [9], in assay [10], in [11] and in assay [12] was above 50 µM throughout. For the same compound, the TGI in assay [13] and in assay [14] was above 50 µM each time.
As for `COC(=O)C1C(=O)C=CN([C@H](C)c2ccccc2)[C@@H]1Cc1ccc(OC)c(OCc2ccccc2)c1I` (stereo not given in full), the TGI is 60.9 µM in assay [1]; 46.7 µM in [2]; 49.3 µM in assay [3]; 79 µM in [4]; above 100 µM in assay [5]; 60.4 µM in assay [6]. Besides, the TGI in assay [7] is 28.2 µM; in assay [8], 31.7 µM; in [9], above 100 µM; in [10] it was 36.8 µM; in assay [11], 27.4 µM; in [12], above 100 µM. Besides, the figures for the TGI in assay [13] and in assay [14] were 70 µM and above 100 µM, respectively.
